Activity calls are given as the source filed them. A value given as a limit tells only on which side of the number the result lay.

In general, IC50 refers to the concentration that gives 50% inhibition. One may read the Ki as the dissociation constant of the complex between target and ligand, obtained from inhibition or displacement.

Holding throughout (format): functional
The target in experiment [1] is T1, Sentrin-specific protease 7 (Homo sapiens, UniProt Q9BQF6).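 Also: Luminescence-based dose-response confirmation of ultra-high-throughput screening hits, measuring inhibition of SENP7.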
T1 sequence (Q9BQF6 whole entry): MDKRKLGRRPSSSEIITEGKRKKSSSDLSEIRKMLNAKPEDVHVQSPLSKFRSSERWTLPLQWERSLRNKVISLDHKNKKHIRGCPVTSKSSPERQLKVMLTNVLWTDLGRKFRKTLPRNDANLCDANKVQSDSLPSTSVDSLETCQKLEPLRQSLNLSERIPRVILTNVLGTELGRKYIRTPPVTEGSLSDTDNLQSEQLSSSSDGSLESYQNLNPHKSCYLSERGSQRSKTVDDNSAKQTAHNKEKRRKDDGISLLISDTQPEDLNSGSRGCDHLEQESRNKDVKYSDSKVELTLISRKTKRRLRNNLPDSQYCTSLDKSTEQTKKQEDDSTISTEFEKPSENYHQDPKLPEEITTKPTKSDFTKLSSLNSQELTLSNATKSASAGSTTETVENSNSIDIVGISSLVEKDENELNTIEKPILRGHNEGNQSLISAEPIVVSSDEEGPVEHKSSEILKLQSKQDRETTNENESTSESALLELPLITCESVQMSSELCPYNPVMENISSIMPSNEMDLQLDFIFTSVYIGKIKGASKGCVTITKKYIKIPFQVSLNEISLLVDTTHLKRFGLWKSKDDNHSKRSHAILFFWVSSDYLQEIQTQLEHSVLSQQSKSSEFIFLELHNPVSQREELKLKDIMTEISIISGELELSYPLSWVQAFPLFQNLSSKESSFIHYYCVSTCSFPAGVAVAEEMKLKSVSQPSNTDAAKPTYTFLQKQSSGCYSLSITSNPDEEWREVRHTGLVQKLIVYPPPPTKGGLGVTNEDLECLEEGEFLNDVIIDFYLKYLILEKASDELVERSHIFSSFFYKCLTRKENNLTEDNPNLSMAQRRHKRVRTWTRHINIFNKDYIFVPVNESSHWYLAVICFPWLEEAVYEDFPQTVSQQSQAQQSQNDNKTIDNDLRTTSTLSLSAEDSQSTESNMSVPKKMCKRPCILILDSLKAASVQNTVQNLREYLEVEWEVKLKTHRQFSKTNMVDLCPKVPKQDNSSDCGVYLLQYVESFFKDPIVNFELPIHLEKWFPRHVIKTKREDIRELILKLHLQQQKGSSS

Experiment [2] concerns the target T2, Orexin/Hypocretin receptor type 1 (Homo sapiens, UniProt O43613).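 Also: antagonism measured against Orexin-A challenge at about its EC80.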
T2 sequence (O43613 whole entry): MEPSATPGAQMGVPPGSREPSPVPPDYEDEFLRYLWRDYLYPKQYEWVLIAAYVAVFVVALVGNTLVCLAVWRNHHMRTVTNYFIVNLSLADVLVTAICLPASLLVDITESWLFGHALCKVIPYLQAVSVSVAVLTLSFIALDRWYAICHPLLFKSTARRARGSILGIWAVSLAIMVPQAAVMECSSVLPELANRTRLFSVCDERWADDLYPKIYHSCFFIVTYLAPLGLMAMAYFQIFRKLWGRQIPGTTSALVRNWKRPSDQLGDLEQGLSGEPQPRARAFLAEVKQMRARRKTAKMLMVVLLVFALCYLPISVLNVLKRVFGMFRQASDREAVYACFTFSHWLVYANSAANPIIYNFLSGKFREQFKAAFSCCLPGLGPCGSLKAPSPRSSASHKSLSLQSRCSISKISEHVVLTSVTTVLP
Put plainly: Homogeneous Time Resolved Fluorescence (HTRF)-based cell-based high throughput dose response assay for antagonists of the orexin 1 receptor (OX1R; HCRTR1). [Related pubchem assays (depositor defined):AID434989, AID435008, AID463079, AID485270, AID492963, AID492964, AID492965, AID493232, AID504717, AID504718].

Experiment [3] has as its target T3, Orexin receptor type 2 (Homo sapiens, UniProt O43614).
T3 sequence (O43614 whole entry): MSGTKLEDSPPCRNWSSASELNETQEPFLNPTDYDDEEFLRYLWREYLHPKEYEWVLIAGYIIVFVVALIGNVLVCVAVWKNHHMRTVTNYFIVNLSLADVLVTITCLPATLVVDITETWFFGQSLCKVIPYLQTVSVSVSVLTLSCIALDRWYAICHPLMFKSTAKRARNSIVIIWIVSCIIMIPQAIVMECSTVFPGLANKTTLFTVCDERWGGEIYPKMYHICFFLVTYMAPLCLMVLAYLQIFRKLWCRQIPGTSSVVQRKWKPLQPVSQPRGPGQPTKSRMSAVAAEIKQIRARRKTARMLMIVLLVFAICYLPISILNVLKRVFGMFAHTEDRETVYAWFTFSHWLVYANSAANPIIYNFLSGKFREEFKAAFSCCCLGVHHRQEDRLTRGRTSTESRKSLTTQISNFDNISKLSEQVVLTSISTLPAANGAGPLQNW
Put plainly: Counterscreen assay for antagonists of the orexin 1 receptor (OX1R; HCRTR1): Homogeneous Time Resolved Fluorescence (HTRF)-based cell-based dose response assay for antagonists of the orexin 2 receptor (OX2R; HCRTR2), run by assay provider. A general note: A counterscreen serves to expose hits that act by an unwanted route or on another target.

Experiment [4] concerns the target Aurora kinase B (Homo sapiens, UniProt Q96GD4).
Experiment [5] deals with Dual specificity tyrosine-phosphorylation-regulated kinase 1A (Homo sapiens, UniProt Q13627).
Experiment [6] concerns the target Activated CDC42 kinase 1 (Homo sapiens, UniProt Q07912). As to the kind of experiment: Navigating the Kinome. Panel member name: ACK1.
The target of experiment [7] is Mitogen-activated protein kinase 8 (Homo sapiens, UniProt P45983).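 Also: value comes from one member of a kinome-wide kinase profiling panel.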
Experiment [8] deals with Serine/threonine-protein kinase D3 (Homo sapiens, UniProt O94806).
The target in experiment [9] is Vascular endothelial growth factor receptor 1 (Homo sapiens, UniProt P17948).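 Also: measured within a kinome-wide profiling panel, FLT1 as the panel member.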
Experiment [10] concerns the target Tyrosine-protein kinase JAK3 (Homo sapiens, UniProt P52333).
The target in experiment [11] is Cyclin-dependent kinase 5 (Homo sapiens, UniProt Q00535).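 Also: CDK5 measured as one member of a kinase profiling panel.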
Sequence of Cyclin-dependent kinase 5 (Q00535 whole entry): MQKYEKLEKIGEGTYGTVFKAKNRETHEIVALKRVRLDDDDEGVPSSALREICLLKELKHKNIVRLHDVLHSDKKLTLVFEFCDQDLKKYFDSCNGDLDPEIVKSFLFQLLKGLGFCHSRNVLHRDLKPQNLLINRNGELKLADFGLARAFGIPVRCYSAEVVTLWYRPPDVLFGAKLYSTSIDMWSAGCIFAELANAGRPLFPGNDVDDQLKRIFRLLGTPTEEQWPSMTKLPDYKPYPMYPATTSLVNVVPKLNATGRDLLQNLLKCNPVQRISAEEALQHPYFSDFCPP
Experiment [12] deals with Inhibitor of nuclear factor kappa-B kinase subunit epsilon (Homo sapiens, UniProt Q14164). As to the kind of experiment: Navigating the Kinome. Panel member name: IKBKE.
Experiment [13] has as its target Glycogen synthase kinase-3 beta (Homo sapiens, UniProt P49841).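 Also: value comes from a broad kinome profiling panel, with GSK3B as the panel member.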
Experiment [14] has as its target LIM domain kinase 1 (Homo sapiens, UniProt P53667). Put plainly: Navigating the Kinome. Panel member name: LIMK1.
Experiment [15] deals with Rho-associated protein kinase 1 (Homo sapiens, UniProt Q13464).
Experiment [16] concerns the target Tyrosine-protein kinase JAK2 (Homo sapiens, UniProt O60674).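 Also: JAK2 tested as one member of a kinase panel.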
The target of experiment [17] is 5'-AMP-activated protein kinase catalytic subunit alpha-1 (Homo sapiens, UniProt Q13131).
Sequence of 5'-AMP-activated protein kinase catalytic subunit alpha-1 (Q13131 whole entry): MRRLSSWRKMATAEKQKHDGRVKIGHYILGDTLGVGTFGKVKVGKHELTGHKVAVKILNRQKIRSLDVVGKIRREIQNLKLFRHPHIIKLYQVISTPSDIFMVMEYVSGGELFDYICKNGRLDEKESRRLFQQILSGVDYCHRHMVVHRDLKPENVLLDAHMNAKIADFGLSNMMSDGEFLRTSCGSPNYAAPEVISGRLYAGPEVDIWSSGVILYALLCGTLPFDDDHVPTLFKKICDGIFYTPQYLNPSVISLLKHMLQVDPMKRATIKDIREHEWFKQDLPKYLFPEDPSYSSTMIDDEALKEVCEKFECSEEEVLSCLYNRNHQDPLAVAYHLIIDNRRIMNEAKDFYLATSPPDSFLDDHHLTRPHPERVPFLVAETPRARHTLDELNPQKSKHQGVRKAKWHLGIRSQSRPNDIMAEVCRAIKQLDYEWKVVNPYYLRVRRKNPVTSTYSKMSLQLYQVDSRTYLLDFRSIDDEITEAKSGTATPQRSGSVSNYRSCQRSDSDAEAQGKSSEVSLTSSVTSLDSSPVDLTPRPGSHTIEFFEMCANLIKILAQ

Sequence of Tyrosine-protein kinase JAK3 (P52333 whole entry): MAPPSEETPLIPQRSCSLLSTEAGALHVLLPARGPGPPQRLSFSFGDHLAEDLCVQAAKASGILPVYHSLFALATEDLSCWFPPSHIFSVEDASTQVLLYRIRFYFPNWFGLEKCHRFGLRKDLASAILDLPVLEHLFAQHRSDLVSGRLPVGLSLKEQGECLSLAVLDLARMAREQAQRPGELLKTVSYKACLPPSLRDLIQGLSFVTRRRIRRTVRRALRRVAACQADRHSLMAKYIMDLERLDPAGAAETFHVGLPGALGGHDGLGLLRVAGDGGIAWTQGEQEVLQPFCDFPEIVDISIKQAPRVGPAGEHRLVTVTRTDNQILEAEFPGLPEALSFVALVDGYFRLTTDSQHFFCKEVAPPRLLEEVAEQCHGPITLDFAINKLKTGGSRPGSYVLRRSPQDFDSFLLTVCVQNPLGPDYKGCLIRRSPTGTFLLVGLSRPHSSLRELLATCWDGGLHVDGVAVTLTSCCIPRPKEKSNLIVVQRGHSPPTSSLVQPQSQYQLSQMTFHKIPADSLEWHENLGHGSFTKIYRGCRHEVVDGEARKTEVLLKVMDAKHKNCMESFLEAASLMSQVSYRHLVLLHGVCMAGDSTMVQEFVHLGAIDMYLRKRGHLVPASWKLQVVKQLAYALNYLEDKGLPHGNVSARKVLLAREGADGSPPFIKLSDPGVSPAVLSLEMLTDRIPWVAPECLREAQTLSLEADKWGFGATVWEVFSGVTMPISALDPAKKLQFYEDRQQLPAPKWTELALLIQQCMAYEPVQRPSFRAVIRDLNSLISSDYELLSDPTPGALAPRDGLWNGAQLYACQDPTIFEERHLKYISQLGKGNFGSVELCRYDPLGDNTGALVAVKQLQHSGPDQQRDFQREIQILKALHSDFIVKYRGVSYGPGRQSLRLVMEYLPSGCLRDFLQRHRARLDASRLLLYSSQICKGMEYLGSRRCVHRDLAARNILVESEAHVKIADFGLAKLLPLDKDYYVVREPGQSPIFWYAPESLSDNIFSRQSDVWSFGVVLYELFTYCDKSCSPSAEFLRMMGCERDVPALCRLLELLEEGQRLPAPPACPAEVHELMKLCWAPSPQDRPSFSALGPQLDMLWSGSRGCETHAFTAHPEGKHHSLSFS
Sequence of Activated CDC42 kinase 1 (Q07912 whole entry): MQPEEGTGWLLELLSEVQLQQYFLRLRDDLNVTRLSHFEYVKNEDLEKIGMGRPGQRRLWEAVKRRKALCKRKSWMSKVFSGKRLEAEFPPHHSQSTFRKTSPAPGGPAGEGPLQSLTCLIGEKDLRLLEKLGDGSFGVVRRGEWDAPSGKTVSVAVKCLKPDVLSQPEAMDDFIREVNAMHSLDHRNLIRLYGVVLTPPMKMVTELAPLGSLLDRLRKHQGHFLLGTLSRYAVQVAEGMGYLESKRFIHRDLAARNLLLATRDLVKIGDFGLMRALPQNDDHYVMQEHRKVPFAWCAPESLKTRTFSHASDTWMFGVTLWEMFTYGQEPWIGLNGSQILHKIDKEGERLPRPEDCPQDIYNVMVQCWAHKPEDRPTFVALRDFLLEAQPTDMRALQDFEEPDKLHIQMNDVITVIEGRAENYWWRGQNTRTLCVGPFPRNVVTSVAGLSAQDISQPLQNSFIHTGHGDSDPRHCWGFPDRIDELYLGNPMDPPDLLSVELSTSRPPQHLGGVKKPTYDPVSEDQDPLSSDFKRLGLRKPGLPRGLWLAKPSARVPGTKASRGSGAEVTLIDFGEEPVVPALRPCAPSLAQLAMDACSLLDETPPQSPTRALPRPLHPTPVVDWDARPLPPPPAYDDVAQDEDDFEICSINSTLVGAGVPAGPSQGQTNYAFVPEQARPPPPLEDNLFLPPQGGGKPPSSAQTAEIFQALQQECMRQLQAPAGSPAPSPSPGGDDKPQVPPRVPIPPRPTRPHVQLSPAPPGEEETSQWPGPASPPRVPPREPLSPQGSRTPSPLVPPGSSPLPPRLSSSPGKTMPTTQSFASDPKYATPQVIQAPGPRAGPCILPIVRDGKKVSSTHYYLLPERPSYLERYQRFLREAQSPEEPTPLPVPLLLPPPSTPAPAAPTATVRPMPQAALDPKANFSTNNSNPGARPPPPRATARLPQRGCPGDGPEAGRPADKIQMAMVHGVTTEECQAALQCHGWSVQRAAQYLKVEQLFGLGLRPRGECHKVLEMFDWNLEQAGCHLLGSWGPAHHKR
Sequence of LIM domain kinase 1 (P53667 whole entry, the tested form may be a part): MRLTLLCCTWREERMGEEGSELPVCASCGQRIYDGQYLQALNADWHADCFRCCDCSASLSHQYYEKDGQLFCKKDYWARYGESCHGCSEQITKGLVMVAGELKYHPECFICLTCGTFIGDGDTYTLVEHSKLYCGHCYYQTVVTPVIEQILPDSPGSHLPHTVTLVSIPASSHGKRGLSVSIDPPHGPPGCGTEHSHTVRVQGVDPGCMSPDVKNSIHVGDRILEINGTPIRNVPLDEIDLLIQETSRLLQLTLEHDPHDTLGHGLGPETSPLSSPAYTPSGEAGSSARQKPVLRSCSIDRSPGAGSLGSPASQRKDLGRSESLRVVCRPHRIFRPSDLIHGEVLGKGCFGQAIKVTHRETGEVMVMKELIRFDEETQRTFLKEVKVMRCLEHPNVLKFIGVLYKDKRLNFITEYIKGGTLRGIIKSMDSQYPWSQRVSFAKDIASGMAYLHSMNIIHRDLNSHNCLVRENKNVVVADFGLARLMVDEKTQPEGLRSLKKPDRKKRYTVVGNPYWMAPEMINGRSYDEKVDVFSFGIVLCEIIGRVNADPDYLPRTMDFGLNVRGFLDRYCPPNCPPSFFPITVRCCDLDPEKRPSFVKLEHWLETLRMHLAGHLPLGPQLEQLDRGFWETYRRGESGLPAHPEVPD
Sequence of Tyrosine-protein kinase JAK2 (O60674 whole entry): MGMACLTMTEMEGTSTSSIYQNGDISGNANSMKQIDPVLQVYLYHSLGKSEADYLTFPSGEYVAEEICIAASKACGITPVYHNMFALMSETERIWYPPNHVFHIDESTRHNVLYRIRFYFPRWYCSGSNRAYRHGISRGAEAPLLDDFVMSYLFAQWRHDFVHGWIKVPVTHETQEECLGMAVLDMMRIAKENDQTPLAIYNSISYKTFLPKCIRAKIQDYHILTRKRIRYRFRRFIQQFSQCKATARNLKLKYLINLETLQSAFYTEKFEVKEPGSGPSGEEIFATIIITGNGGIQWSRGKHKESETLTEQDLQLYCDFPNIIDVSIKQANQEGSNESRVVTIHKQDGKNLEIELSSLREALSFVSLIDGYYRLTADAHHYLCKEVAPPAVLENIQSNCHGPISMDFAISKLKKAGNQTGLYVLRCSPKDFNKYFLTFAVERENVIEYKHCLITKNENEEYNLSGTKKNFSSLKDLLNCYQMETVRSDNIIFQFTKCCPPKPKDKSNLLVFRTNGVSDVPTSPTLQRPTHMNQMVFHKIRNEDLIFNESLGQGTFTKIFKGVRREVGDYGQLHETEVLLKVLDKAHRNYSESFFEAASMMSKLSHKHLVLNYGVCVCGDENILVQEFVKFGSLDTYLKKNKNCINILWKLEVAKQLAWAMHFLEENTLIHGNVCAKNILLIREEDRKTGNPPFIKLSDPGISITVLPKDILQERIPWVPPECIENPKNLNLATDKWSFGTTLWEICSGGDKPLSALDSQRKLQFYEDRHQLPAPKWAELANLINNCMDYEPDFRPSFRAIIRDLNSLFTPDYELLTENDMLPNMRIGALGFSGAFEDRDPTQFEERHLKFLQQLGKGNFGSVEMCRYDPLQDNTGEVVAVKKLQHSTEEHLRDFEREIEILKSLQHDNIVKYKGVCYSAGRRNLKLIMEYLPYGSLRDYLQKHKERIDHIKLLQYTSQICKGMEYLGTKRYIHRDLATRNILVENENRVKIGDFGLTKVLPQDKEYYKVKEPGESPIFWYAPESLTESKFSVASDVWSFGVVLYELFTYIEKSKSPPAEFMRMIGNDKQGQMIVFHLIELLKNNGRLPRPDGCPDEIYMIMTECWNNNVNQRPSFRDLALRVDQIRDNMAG

As to `Cc1ccnc2ccc(-c3nc4ccccc4o3)cc12`, the figures for the IC50 in experiment [1], in [2] and in [3] were 2.2 µM (active), 1.1 µM (active) and > 50 µM (inactive), respectively.

Consider `O=C(NCCc1cccs1)N1CC=C(c2c[nH]c3ncccc23)CC1`, for which the Ki in experiment [4] was > 3.98 µM (inactive); in experiment [5], 0.126 µM (active); in [6], > 3.98 µM (inactive); in experiment [7] it was 3.98 µM (active); in experiment [8] it was > 3.98 µM (inactive); in [9], > 3.98 µM (inactive). For the same compound, the Ki was > 5.01 µM (inactive) in experiment [10]; 0.158 µM (active) in experiment [11]; > 3.16 µM (inactive) in experiment [12]; 3.16 µM (active) in [13]; > 3.16 µM (inactive) in [14]; 0.0631 µM (active) in experiment [15]. Also, the Ki was > 2.51 µM (inactive) in [16] and 2 µM (active) in experiment [17].

The values are drawn from ChEMBL document CHEMBL1201862, “PubChem BioAssay data set” (2004).
